Measurements published in US20240092784A1, “CONDENSED HETEROCYCLIC COMPOUND” (NISSAN CHEMICAL CORPORATION, priority 2020, published 2024).
Where a name gives a salt, the structure may show the parent alone.

Target: human SPR (Homo sapiens (Human), UniProt P35270)
Assay: Evaluation Example 2: Measurement of human SPR inhibitory activity (seven concentrations, sepiapterin absorbance at 420 nm)
Assay type: biochemical
Details: Evaluation Example 2, seven concentrations 0.14 nM to 100 nM, 240 minutes at room temperature, read-out: IC50
Experimental: Human SPR was prepared as described below. The full-length human SPR (1-261) cDNA was purchased from Eurofins Genomics as an artificially synthesized plasmid containing a DNA sequence optimized for the E. coli expression system so that the sequence of the expressed protein after transcription and translation matches the sequence described in UniprotKB (P35270).
Linearized insert and vector were prepared by PCR using primers designed for amplification of human SPR cDNA and primers designed to contain the thrombin recognition sequence of pET28a (Novagen) and a polyhistidine tag. Cloning was performed using In-Fusion (registered trademark) HD Cloning Kit (TaKaRa) to thereby construct a human SPR expression plasmid. The resultant human SPR expression plasmid was transformed into BL21 (DE3) competent cells (INVITROGEN).
The cells were inoculated into LB medium (1% triptone, 0.5% yeast extract, 1% sodium chloride) containing […] of kanamycin, and then precultured at 37° C. overnight. The precultured cells were inoculated into TB medium (1.2% triptone, 2.4% yeast extract, 9.4% dipotassium hydrogen phosphate, 2.2% potassium dihydrogen phosphate, 0.8% glycerin) containing […] of kanamycin, and the cultured at 37° C., to thereby induce SPR expression with 0.5 mM IPTG for four hours. After the induction, the cells were collected by centrifugation at 6,000 G for 30 minutes and washed with PBS, and the washing was discarded. The washed cells were suspended in buffer solution A (20 mM MES, pH 6.5, 100 mM sodium chloride, 1 mM DTT, 5 mM imidazole). Subsequently, the cell suspension was subjected to ultrasonic treatment to thereby homogenize the cells. The cell homogenate was clarified by centrifugation at 30,000 G for 60 minutes and then filtered with a […]. The filtrate was allowed to pass through HisTrapFF 5 mL column (GE Healthcare). The resin was washed with buffer A, and then gradient elution was performed with buffer B (20 mM MES, pH 6.5, 100 mM sodium chloride, 1 mM DTT, 500 mM imidazole). Thrombin was added to a fraction containing the SPR protein, and the mixture was dialyzed in buffer A overnight, to thereby cleave the tag. After removal of the thrombin by with Benzamidine Sepharose 4 FF (GE Healthcare), the resultant product was allowed to pass through the HisTrapFF 5 mL column, to thereby remove the tag, followed by concentration with Amicon Ultra 10,000 NMWL (Merck Millipore). The concentrate was purified by gel filtration using HiLoad 16/60 Superdex 75 pg (GE Healthcare) equilibrated with buffer C (20 mM MES, pH 6.5, 100 mM sodium chloride, 1 mM DTT). The fraction containing SPR protein was concentrated and then cryopreserved at −80° C.
Human SPR inhibitory activity was measured by using a 384-well low adsorption clear plate (Greiner) with buffer D containing 100 mM Tris-HCl (pH 7.5) (Thermo Fisher Scientific) and 0.01% bovine serum albumin (Sigma). A compound was diluted with DMSO to achieve seven different final concentrations; i.e., 0.14 nM, 0.41 nM, 1.23 nM, 3.7 nM, 11.1 nM, 33 nM, and 100 nM. A 1.5 μL aliquot of the compound solution prepared with DMSO was diluted with 250 μL of buffer D, and the thus-diluted solution was dispensed into the 384-well plate at 20 μL/well. Thereafter, human SPR was diluted with buffer D to 150 ng/mL and then dispensed into the 384-well plate at 20 μL/well. Subsequently, 40 μL of ultrapure water containing 120 μM sepiapterin (produced by the method described in L-Sepiapterin, Heterocycles, 2008, 76, 1329-1335 and WO 2013/168693) and 160 μM NADPH (Nacalai) was added to each well, and then reaction was initiated. The reaction mixture was incubated at room temperature for 240 minutes. Thereafter, in order to determine the amount of sepiapterin, the absorbance at 420 nm was measured by applying the 384-well plate to EnSpire multimode plate reader (Perkin Elmer). The percent inhibition (%) of human SPR by the test compound was calculated by the following formula.

human SPR, sequence (P35270 whole entry): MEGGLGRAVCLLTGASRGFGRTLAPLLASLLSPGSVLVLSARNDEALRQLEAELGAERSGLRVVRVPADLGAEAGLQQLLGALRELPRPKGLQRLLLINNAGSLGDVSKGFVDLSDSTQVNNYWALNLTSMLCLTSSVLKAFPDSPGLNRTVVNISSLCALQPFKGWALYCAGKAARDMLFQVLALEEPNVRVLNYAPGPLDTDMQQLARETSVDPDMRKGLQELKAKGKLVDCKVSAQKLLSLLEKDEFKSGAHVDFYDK

CC(C)Cn1c(=O)c(C(=O)NC2CC2)c(O)n2ncc(C(=O)NCc3ccc(F)cc3F)c12 [Synthesis Example 234, N6-Cyclopropyl-N3-(2,4-difluorobenzyl)-7-hydroxy-4-isobutyl-5-oxo-4,5-dihydropyrazolo[1,5-a]pyrimidine-3,6-dicarboxamide]
IC50: 1.41 nM

CC(C)Cn1c(=O)c(C(=O)NC2CC2)c(O)n2ncc(C(=O)NCc3ncccc3F)c12 [Synthesis Example 235, N6-Cyclopropyl-N3-((3-fluoropyridin-2-yl)methyl)-7-hydroxy-4-isobutyl-5-oxo-4,5-dihydropyrazolo[1,5-a]pyrimidine-3,6-dicarboxamide]
IC50: 0.9 nM

CC(C)Cn1c(=O)c(C(=O)NC2CC2)c(O)n2ncc(/C=C/c3cnccn3)c12 [Synthesis Example 236, (E)-N-Cyclopropyl-7-hydroxy-4-isobutyl-5-oxo-3-(2-(pyrazin-2-yl)vinyl)-4,5-dihydropyrazolo[1,5-a]pyrimidine-6-carboxamide]
IC50: 0.97 nM

CC(C)Cn1c(=O)c(C(=O)NC2CC2)c(O)n2ncc(/C=C/C3CCOCC3)c12 [Synthesis Example 237, (E)-N-Cyclopropyl-7-hydroxy-4-isobutyl-5-oxo-3-(2-(tetrahydro-2H-pyran-4-yl)vinyl)-4,5-dihydropyrazolo[1,5-a]pyrimidine-6-carboxamide]
IC50: 0.91 nM

Cc1noc(C)c1/C=C/c1cnn2c(O)c(C(=O)NC3CC3)c(=O)n(CC(C)C)c12 [Synthesis Example 238, (E)-N-Cyclopropyl-3-(2-(3,5-dimethylisoxazol-4-yl)vinyl)-7-hydroxy-4-isobutyl-5-oxo-4,5-dihydropyrazolo[1,5-a]pyrimidine-6-carboxamide]
IC50: 0.89 nM

CC(C)Cn1c(=O)c(C(=O)NC2CC2)c(O)n2ncc(C3=CCCNC3)c12 [Synthesis Example 239, N-Cyclopropyl-7-hydroxy-4-isobutyl-5-oxo-3-(1,2,5,6-tetrahydropyridin-3-yl)-4,5-dihydropyrazolo[1,5-a]pyrimidine-6-carboxamide hydrochloride]
IC50: 0.72 nM

CC(C)Cn1c(=O)c(C(=O)NC2CC2)c(O)n2ncc(/C=C/c3cscn3)c12 [Synthesis Example 240, (E)-N-Cyclopropyl-7-hydroxy-4-isobutyl-5-oxo-3-(2-(thiazol-4-yl)vinyl)-4,5-dihydropyrazolo[1,5-a]pyrimidine-6-carboxamide]
IC50: 1.84 nM

CC(C)Cn1c(=O)c(C(=O)NC2CC2)c(O)n2ncc(/C=C/C3CCNCC3)c12 [Synthesis Example 241, (E)-N-Cyclopropyl-7-hydroxy-4-isobutyl-5-oxo-3-(2-(piperidin-4-yl)vinyl)-4,5-dihydropyrazolo[1,5-a]pyrimidine-6-carboxamide hydrochloride]
IC50: 1.98 nM

CC(C)Cn1c(=O)c(C(=O)NC2CC2)c(O)n2ncc(/C=C/C3(C)CCOCC3)c12 [Synthesis Example 242, (E)-N-Cyclopropyl-7-hydroxy-4-isobutyl-3-(2-(4-methyltetrahydro-2H-pyran-4-yl)vinyl)-5-oxo-4,5-dihydropyrazolo[1,5-a]pyrimidine-6-carboxamide]
IC50: 1.39 nM

CC(C)Cn1c(=O)c(C(=O)NC2CC2)c(O)n2ncc(/C=C/C(C)(C)C)c12 [Synthesis Example 243, (E)-N-Cyclopropyl-3-(3,3-dimethylbut-1-en-1-yl)-7-hydroxy-4-isobutyl-5-oxo-4,5-dihydropyrazolo[1,5-a]pyrimidine-6-carboxamide]
IC50: 1.58 nM

CC(=O)N1CCC(/C=C/c2cnn3c(O)c(C(=O)NC4CC4)c(=O)n(CC(C)C)c23)CC1 [Synthesis Example 244, (E)-3-(2-(1-Acetylpiperidin-4-yl)vinyl)-N-cyclopropyl-7-hydroxy-4-isobutyl-5-oxo-4,5-dihydropyrazolo[1,5-a]pyrimidine-6-carboxamide]
IC50: 0.99 nM

CC(=O)N1CCC(C)(/C=C/c2cnn3c(O)c(C(=O)NC4CC4)c(=O)n(CC(C)C)c23)CC1 [Synthesis Example 245, (E)-3-(2-(1-Acetyl-4-methylpiperidin-4-yl)vinyl)-N-cyclopropyl-7-hydroxy-4-isobutyl-5-oxo-4,5-dihydropyrazolo[1,5-a]pyrimidine-6-carboxamide]
IC50: 1.08 nM

CC(C)Cn1c(=O)c(C(=O)NC2CC2)c(O)n2ncc(/C=C/C3CC3)c12 [Synthesis Example 246, (E)-N-Cyclopropyl-3-(2-cyclopropylvinyl)-7-hydroxy-4-isobutyl-5-oxo-4,5-dihydropyrazolo[1,5-a]pyrimidine-6-carboxamide]
IC50: 1.19 nM

CC(C)Cn1c(=O)c(C(=O)NC2CC2)c(O)n2ncc(/C=C/c3cccnc3)c12 [Synthesis Example 247, (E)-N-Cyclopropyl-7-hydroxy-4-isobutyl-5-oxo-3-(2-(pyridin-3-yl)vinyl)-4,5-dihydropyrazolo[1,5-a]pyrimidine-6-carboxamide]
IC50: 0.94 nM

CC(C)Cn1c(=O)c(C(=O)NC2CC2)c(O)n2ncc(/C=C/c3ccc(C(F)(F)F)nc3)c12 [Synthesis Example 248, (E)-N-Cyclopropyl-7-hydroxy-4-isobutyl-5-oxo-3-(2-(6-(trifluoromethyl)pyridine-3-yl)vinyl)-4,5-dihydropyrazolo[1,5-a]pyrimidine-6-carboxamide]
IC50: 1.89 nM

CC(C)Cn1c(=O)c(C(=O)NC2CC2)c(O)n2ncc(/C=C/C3CCN(CC(F)(F)F)CC3)c12 [Synthesis Example 249, (E)-N-Cyclopropyl-7-hydroxy-4-isobutyl-5-oxo-3-(2-(1-(2,2,2-trifluoroethyl)piperidin-4-yl)vinyl)-4,5-dihydropyrazolo[1,5-a]pyrimidine-6-carboxamide]
IC50: 2.69 nM

CC(C)Cn1c(=O)c(C(=O)NC2CC2)c(O)n2ncc(CCc3cccnc3)c12 [Synthesis Example 250, N-Cyclopropyl-7-hydroxy-4-isobutyl-5-oxo-3-(2-(pyridin-3-yl)ethyl)-4,5-dihydropyrazolo[1,5-a]pyrimidine-6-carboxamide]
IC50: 0.88 nM

CC(C)Cn1c(=O)c(C(=O)NC2CC2)c(O)n2ncc(CCc3ccc(C(F)(F)F)nc3)c12 [Synthesis Example 251, N-Cyclopropyl-7-hydroxy-4-isobutyl-5-oxo-3-(2-(6-(trifluoromethyl)pyridin-3-yl)ethyl)-4,5-dihydropyrazolo[1,5-a]pyrimidine-6-carboxamide]
IC50: 1.74 nM

C/C(=C\c1cnn2c(O)c(C(=O)NC3CC3)c(=O)n(CC(C)C)c12)C(=O)O [Synthesis Example 252, (E)-3-(6-(Cyclopropylcarbamoyl)-7-hydroxy-4-isobutyl-5-oxo-4,5-dihydropyrazolo[1,5-a]pyrimidin-3-yl)-2-methylacrylic acid]
IC50: 7.11 nM

C/C(=C\c1cnn2c(O)c(C(=O)NC3CC3)c(=O)n(CC(C)C)c12)C(=O)N1CCC(F)(F)CC1 [Synthesis Example 253, (E)-N-Cyclopropyl-3-(3-(4,4-difluoropiperidin-1-yl)-2-methyl-3-oxoprop-1-en-1-yl)-7-hydroxy-4-isobutyl-5-oxo-4,5-dihydropyrazolo[1,5-a]pyrimidine-6-carboxamide]
IC50: 0.85 nM

C/C(=C\c1cnn2c(O)c(C(=O)NC3CC3)c(=O)n(CC(C)C)c12)C(=O)N1CCOCC1 [Synthesis Example 254, (E)-N-Cyclopropyl-7-hydroxy-4-isobutyl-3-(2-methyl-3-morpholino-3-oxoprop-1-en-1-yl)-5-oxo-4,5-dihydropyrazolo[1,5-a]pyrimidine-6-carboxamide]
IC50: 0.84 nM
